#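 1) Cells in 96-well plates. 2) Compound, 48 h, 5 concentrations. 3) Linear interpolation between surrounding doses. 4) Unreached endpoint = highest concentration. At the GI50, growth is halved.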 Active and inactive are the calls of the source. Rule as the data show it: active = GI50 up to about 1.1 µM and inactive = higher.
# Legend:
# Experiment in all cases: inhibition of tumour cell growth, NCI panel, 48 h
# [1] = test system: HT-29
# [2] = test system: BT-549
# [3] = test system: SNB-75
# [4] = test system: UACC-257
# [5] = test system: A498
# [6] = test system: MDA-MB-231
# [7] = test system: LOX IMVI
# [8] = test system: HCT-116
# [9] = test system: 786-0
# [10] = test system: M14
# [11] = test system: NCI-H226
# [12] = test system: HL-60
# [13] = test system: SK-MEL-28
# [14] = test system: RXF 393
# [15] = test system: NCI-H23
# [16] = test system: UACC-62
# [17] = test system: SW-620
# [18] = test system: OVCAR-8
# [19] = test system: T47D
# [20] = test system: HCC 2998
Compound,GI50 [1],GI50 [2],GI50 [3],GI50 [4],GI50 [5],GI50 [6],GI50 [7],GI50 [8],GI50 [9],GI50 [10],GI50 [11],GI50 [12],GI50 [13],GI50 [14],GI50 [15],GI50 [16],GI50 [17],GI50 [18],GI50 [19],GI50 [20]
CC(C)(C)c1ccc2c(c1)C(=O)c1ccccc1C2=O,27.2 µM (inactive),24.8 µM (inactive),16.2 µM (inactive),40.2 µM (inactive),41.3 µM (inactive),> 100 µM (inactive),41.4 µM (inactive),76 µM (inactive),> 100 µM (inactive),> 100 µM (inactive),35.5 µM (inactive),64.6 µM (inactive),98.2 µM (inactive),26.1 µM (inactive),61.9 µM (inactive),42 µM (inactive),> 100 µM (inactive),44.5 µM (inactive),> 100 µM (inactive),–
Nc1nc(SCC(=O)c2ccc(Br)cc2)c2nc[nH]c2n1,44.6 µM (inactive),27 µM (inactive),28 µM (inactive),30.5 µM (inactive),51.6 µM (inactive),52.1 µM (inactive),31.4 µM (inactive),31.2 µM (inactive),42.2 µM (inactive),40.5 µM (inactive),27.1 µM (inactive),25.3 µM (inactive),65.2 µM (inactive),41.9 µM (inactive),45.2 µM (inactive),37.7 µM (inactive),46.6 µM (inactive),28.8 µM (inactive),25.8 µM (inactive),–
C=CC(C)(C)c1cc([C@@H]2COc3cc(O)ccc3C2=O)c(O)c(OC)c1OC,20.5 µM (inactive),10.2 µM (inactive),4.63 µM (inactive),13 µM (inactive),16.9 µM (inactive),13.5 µM (inactive),16.6 µM (inactive),11.8 µM (inactive),16 µM (inactive),15.5 µM (inactive),16.5 µM (inactive),6.75 µM (inactive),19.5 µM (inactive),0.0173 µM (active),10.4 µM (inactive),13 µM (inactive),31.6 µM (inactive),17.3 µM (inactive),3.24 µM (inactive),17.1 µM (inactive)
COC(=O)C1=C(N)C2=C(N)Oc3ccccc3C2CC1=C(C#N)C#N (stereo not given),26.2 µM (inactive),23.4 µM (inactive),18 µM (inactive),34.7 µM (inactive),25.8 µM (inactive),17.5 µM (inactive),18.8 µM (inactive),23.5 µM (inactive),30.9 µM (inactive),19.4 µM (inactive),44.3 µM (inactive),29.2 µM (inactive),–,26 µM (inactive),19.6 µM (inactive),18.1 µM (inactive),33.7 µM (inactive),23.9 µM (inactive),25.9 µM (inactive),17.9 µM (inactive)
COC1OC(Cc2nnc(C)o2)C(OCc2ccccc2)C(OCc2ccccc2)C1OCc1ccccc1 (stereo not given),26.4 µM (inactive),25.7 µM (inactive),74.3 µM (inactive),17.2 µM (inactive),50.9 µM (inactive),36.1 µM (inactive),20.1 µM (inactive),37.4 µM (inactive),40.6 µM (inactive),31 µM (inactive),29.5 µM (inactive),26.2 µM (inactive),22.9 µM (inactive),18.3 µM (inactive),19.9 µM (inactive),17 µM (inactive),40.1 µM (inactive),–,52.5 µM (inactive),–
COc1ccc2c(c1C)C(=O)C(O)(CC=C(C)C)O2 (stereo not given),> 100 µM (inactive),> 100 µM (inactive),> 100 µM (inactive),> 100 µM (inactive),> 100 µM (inactive),> 100 µM (inactive),> 100 µM (inactive),> 100 µM (inactive),> 100 µM (inactive),> 100 µM (inactive),> 100 µM (inactive),> 100 µM (inactive),> 100 µM (inactive),–,> 100 µM (inactive),> 100 µM (inactive),> 100 µM (inactive),> 100 µM (inactive),> 100 µM (inactive),> 100 µM (inactive)
O=C1Nc2ccccc2/C1=N/NC(=S)NCc1ccccn1,0.0462 µM (active),1.09 µM (active),0.454 µM (active),0.47 µM (active),2.25 µM (inactive),0.0721 µM (active),0.371 µM (active),< 0.01 µM (active),0.355 µM (active),0.312 µM (active),0.604 µM (active),< 0.01 µM (active),2.36 µM (inactive),–,0.533 µM (active),0.341 µM (active),0.126 µM (active),0.346 µM (active),0.0343 µM (active),0.975 µM (active)
O=C(NCCCCCCO)c1cccc2cc3ccccc3nc12,17.5 µM (inactive),16.2 µM (inactive),21.9 µM (inactive),17.6 µM (inactive),> 10 µM (inactive),21 µM (inactive),16.6 µM (inactive),17.2 µM (inactive),13.8 µM (inactive),–,16.6 µM (inactive),25.5 µM (inactive),20.6 µM (inactive),17.2 µM (inactive),–,16.5 µM (inactive),29.9 µM (inactive),32.3 µM (inactive),10.8 µM (inactive),–
Cc1c(F)c(NC(=O)CN(C)C)c2c(=O)cc(-c3ccc(NC(=O)CN(C)C)c(F)c3)oc2c1F,14.6 µM (inactive),17.9 µM (inactive),–,21.9 µM (inactive),1.35 µM (inactive),13.6 µM (inactive),14.9 µM (inactive),12.9 µM (inactive),15.9 µM (inactive),16.3 µM (inactive),12.6 µM (inactive),17.1 µM (inactive),21.5 µM (inactive),12.8 µM (inactive),17.3 µM (inactive),19.1 µM (inactive),16.2 µM (inactive),17.8 µM (inactive),24.2 µM (inactive),0.678 µM (active)
O=C1CSC(c2c[nH]c3ccccc23)N1c1cccc(Cl)c1 (stereo not given),37.8 µM (inactive),43.9 µM (inactive),46.7 µM (inactive),> 100 µM (inactive),60.1 µM (inactive),24 µM (inactive),–,29.5 µM (inactive),25.5 µM (inactive),49.1 µM (inactive),66.5 µM (inactive),36.6 µM (inactive),> 100 µM (inactive),> 100 µM (inactive),54 µM (inactive),45.8 µM (inactive),50.7 µM (inactive),> 100 µM (inactive),> 100 µM (inactive),54.3 µM (inactive)
COc1c(C(=O)O)cccc1-c1cccc(C(=O)NCCN(CCNC(=O)c2cccc(-c3cccc(C(=O)O)c3OC)c2OC)CCNC(=O)c2cccc(-c3cccc(C(=O)O)c3OC)c2OC)c1OC,20.7 µM (inactive),52.1 µM (inactive),25.9 µM (inactive),62.7 µM (inactive),31.8 µM (inactive),37.6 µM (inactive),32.3 µM (inactive),33.4 µM (inactive),31.6 µM (inactive),–,32.7 µM (inactive),18.2 µM (inactive),52.5 µM (inactive),28.6 µM (inactive),64.7 µM (inactive),25.8 µM (inactive),29.6 µM (inactive),63 µM (inactive),43 µM (inactive),31.7 µM (inactive)
O=C1CC(CC(O)C(O)C(O)CO)CC(=O)N1 (stereo not given),> 100 µM (inactive),> 100 µM (inactive),> 100 µM (inactive),> 100 µM (inactive),> 100 µM (inactive),> 100 µM (inactive),> 100 µM (inactive),> 100 µM (inactive),> 100 µM (inactive),> 100 µM (inactive),> 100 µM (inactive),> 100 µM (inactive),> 100 µM (inactive),> 100 µM (inactive),> 100 µM (inactive),–,> 100 µM (inactive),> 100 µM (inactive),> 100 µM (inactive),> 100 µM (inactive)
Cc1coc2c1CC1OC1(C)CCC1OC1(C)C2 (stereo not given),–,> 100 µM (inactive),> 100 µM (inactive),> 100 µM (inactive),> 100 µM (inactive),> 100 µM (inactive),> 100 µM (inactive),> 100 µM (inactive),> 100 µM (inactive),> 100 µM (inactive),> 100 µM (inactive),> 100 µM (inactive),> 100 µM (inactive),–,> 100 µM (inactive),> 100 µM (inactive),> 100 µM (inactive),> 100 µM (inactive),> 100 µM (inactive),> 100 µM (inactive)
COc1cc(Nc2nnc3n2S(=O)(=O)c2cc(C)c(Cl)cc2S3)cc(OC)c1,12.4 µM (inactive),5.77 µM (inactive),–,16.6 µM (inactive),19.1 µM (inactive),19.9 µM (inactive),–,14 µM (inactive),4.22 µM (inactive),59.3 µM (inactive),16.4 µM (inactive),8.69 µM (inactive),26 µM (inactive),10.5 µM (inactive),6.25 µM (inactive),18.1 µM (inactive),–,17.5 µM (inactive),8.22 µM (inactive),6.18 µM (inactive)
CN(C)CCNC(=O)c1cc(-c2nccn2C)nc2ccccc12,> 100 µM (inactive),81.1 µM (inactive),> 100 µM (inactive),> 100 µM (inactive),> 100 µM (inactive),> 100 µM (inactive),> 100 µM (inactive),> 100 µM (inactive),> 100 µM (inactive),> 100 µM (inactive),> 100 µM (inactive),> 100 µM (inactive),–,45.4 µM (inactive),> 100 µM (inactive),> 100 µM (inactive),> 100 µM (inactive),> 100 µM (inactive),> 100 µM (inactive),> 100 µM (inactive)

# — ChEMBL document CHEMBL1201862, “PubChem BioAssay data set” (2004)
